Source: patent publication US11331295B2, “High-dose statins for age-related macular degeneration” (MASSACHUSETTS EYE AND EAR INFIRMARY, priority 2015, dated 2022)
Read-outs that look alike come from different tables or passages of the source.

Columns and labels:
ARPE-19 cells = experiment: Phagocytosis analysis by flow cytometry (fluorescent carboxylate microspheres); type: cell-based, human; settings: 6 hours; for percentage of phagocytic ARPE-19 cells: DMSO control 31%; for mean fluorescence intensity of cells: control 340; for percentage of ARPE-19 phagocytic cells / mean fluorescence intensity (phagocytic index): 50 μM statin; for percentage of ARPE-19 phagocytic cells: control 31%; for mean fluorescence intensity (phagocytic index): control 332
Experimental: A flow cytometric assay was used to evaluate cell phagocytosis according to a protocol described by Pranab (Mukherjee et al., 2007 Proc Natl Acad Sci USA 104:13158-63). Briefly, ARPE-19 cells were seeded in 12-well plates and cultured until 90% confluent. […] After incubation, cells were washed with PBS three times to remove any extracellular beads, then trypsinized (0.25% trypsin-EDTA, Gibco, US) for 1 minute, and neutralized with pre-warmed culture medium. The cell suspension was collected and centrifuged (241 g, 5 minutes). The cell pellet was re-suspended in 0.5 ml PBS for each sample. Subsequently, the cells were analyzed for green phagocytized fluorescent beads (excitation wavelength of 441 nm and emission wavelength of 486 nm) by a FACScalibur flow cytometer using the CellQuest 3.0.1 (Becton & Dickinson, Mountain View, Calif., US) and FlowJo 10.0 software. The percent of phagocytic cells present in each group was recorded as well as the mean fluorescence intensity of engulfed particles.
The percentage of phagocytic ARPE-19 cells and the mean fluorescence intensity of engulfed particles per group were measured by flow cytometry 6 hours after treatment.
Vavvas et al., 2016 EBioMedicine 5:198-203). […] The effects of cholesterol crystals and ox-LDL on the phagocytic function of RPE cells were studied because impairment of this function is linked to AMD (Nandrot et al., 2007 Adv Exp Med Biol 801:978-1). ARPE-19 cells were treated with 2 mg/ml cholesterol crystals for 6 hours, or 300 μg/ml oxLDL for 18 hours. The phagocytic function was then assessed by flow cytometry, as described in the methods.

[1] = test system: patients with AMD with many large, soft drusen/drusenoid PEDs
Experimental: (§1) A case report and pilot multi-center prospective interventional study were conducted with IRB approval. Inclusion criteria were patients over the age of 50 with diagnosis of AMD and the presence of many large, soft drusen/drusenoid PEDs in both eyes. […] Pseudophakia was not a reason for exclusion, unless accompanied by significant posterior capsular opacity.

[2] = test system: patient with AMD (large soft drusen); experiment: Report of initial case: 80 mg atorvastatin daily in a patient with AMD; type: in vivo, human
Experimental: as §1
An otherwise healthy person with AMD presented deteriorating visual acuity. Their baseline visual acuity was 20/25 with significant distortion; they were already taking Age-Related Eye Disease Study (AREDS) supplementation. […] Spectral domain optical coherence tomography (SD-OCT) confirmed the significant extent of these deposits and pigment epithelial detachments as well as the overlying RPE and photoreceptor architectural distortion (FIG. 2, top row). No subretinal or intraretinal fluid was present. Standard AREDS supplementation was continued. […]

IL-6 = IL-6 secretion from ARPE-19 cells (western blot of culture medium); type: cell-based, human
Experimental: (§2) ARPE-19 cells were seeded in 6-well plates at a density of 1×10^5 cells/well. […] The membrane was then washed and incubated with secondary antibodies. The membrane was developed with enhanced chemiluminescence. The intensity of protein bands was measured using the software Image Lab 4.1 (Bio-Rad, Hercules, Calif., US).
Cholesterol crystals induce the secretion of the inflammatory cytokines IL-6 and IL-8 in ARPE-19 cells (Hu et al., 2014 Discovery Med. 18(97):7-14). […] The levels of IL-6 and IL-8 were evaluated using western blot or ELISA. As expected, cholesterol crystals increased ARPE-19 secretion of IL-6 and IL-8, 3.2- and 2.5-fold, respectively, compared to control treatment (FIGS. 7A and B). […] Similar to cholesterol crystals, incubation of ARPE-19 with ox-LDL led to a 2.6- and 1.3-fold increase in secreted IL-6 and IL-8, respectively.

IL-8 = IL-8 secretion from ARPE-19 cells (western blot / ELISA); type: cell-based, human
Experimental: as §2
IL-8 induced by oxLDL was measured by analysis of conditioned media of ARPE-19 cells using an ELISA kit (IL-8, R&D Systems, Minneapolis, Minn., US) according to the manufacturer's instructions.
Cholesterol crystals induce the secretion of the inflammatory cytokines IL-6 and IL-8 in ARPE-19 cells (Hu et al., 2014 Discovery Med. 18(97):7-14). […] The levels of IL-6 and IL-8 were evaluated using western blot or ELISA. As expected, cholesterol crystals increased ARPE-19 secretion of IL-6 and IL-8, 3.2- and 2.5-fold, respectively, compared to control treatment (FIGS. 7A and B). […]. […].

[3] = 50 μM atorvastatin, 300 μg/ml ox-LDL 18 hours
[4] = 50 μM atorvastatin, cholesterol crystals
[5] = six months after 80 mg atorvastatin

CC(C)c1c(C(=O)Nc2ccccc2)c(-c2ccccc2)c(-c2ccc(F)cc2)n1CC[C@@H](O)C[C@@H](O)CC(=O)O [atorvastatin]
percentage of phagocytic ARPE-19 cells (ARPE-19 cells; 1 μM atorvastatin): 35% | mean fluorescence intensity of cells (ARPE-19 cells; 1 μM atorvastatin): 368 | percentage of phagocytic ARPE-19 cells (ARPE-19 cells; 25 μM atorvastatin): 40% | mean fluorescence intensity of cells (ARPE-19 cells; 25 μM atorvastatin): 443 | decrease in mean fluorescence intensity induced by ox-LDL (ARPE-19 cells; [3]): completely reversed | decrease in the percentage of phagocytic cells induced by ox-LDL (ARPE-19 cells; [3]): completely reversed | percentage of phagocytic ARPE-19 cells (ARPE-19 cells; 50 μM atorvastatin): 42% | decrease in mean fluorescence intensity induced by cholesterol crystals (ARPE-19 cells; [4]): completely reversed | decrease in the percentage of phagocytic cells induced by cholesterol crystals (ARPE-19 cells; [4]): completely reversed | mean fluorescence intensity of cells (ARPE-19 cells; 50 μM atorvastatin): 453 | percentage of ARPE-19 phagocytic cells (ARPE-19 cells): 43% | percentage of phagocytic ARPE-19 cells (ARPE-19 cells; 75 μM atorvastatin): 46% | mean fluorescence intensity of cells (ARPE-19 cells; 75 μM atorvastatin): 467 | Chol. Reduction ([1]; All (n = 23)): −62 +/− 35 | Last VA (letters) ([1]; All (n = 23), initial 77.6 +/- 8.3): 77.7 +/− 8.4 letters | Last Cholesterol ([1]; All (n = 23), initial 208 +/- 34.9): 147 +/− 31 | Chol. Reduction ([1]; Non Responders (n = 13)): 71 +/− 35.9 | VA gain (loss) ([1]; Non Responders (n = 13)): −2.3 | Last VA (letters) ([1]; Non Responders (n = 13), initial 80.2 +/- 6): 77.9 +/− 7.1 letters | Last Cholesterol ([1]; Non Responders (n = 13), initial 207 +/- 37.4): 136 +/− 24.4 | Chol. Reduction ([1]; Responders (n = 10)): 49 +/− 31.2 | VA gain (loss) ([1]; Responders (n = 10)): +3.3 | Last VA (letters) ([1]; Responders (n = 10), initial 74.2 +/- 9.9): 77.5 +/− 10.3 letters | Last Cholesterol ([1]; Responders (n = 10), initial 210 +/- 33.4): 161 +/− 34.2 | patients showing near-complete regression of drusen deposits ([1]; among 23 patients who completed): eight | effect on progression of pigmentary changes or of pre-existing atrophy ([1]; high-dose atorvastatin): did not appear to have a positive or negative effect | letters lost on average ([1]; non-responders): 2.2 letters | patients who exited the study (cramps, muscle aches, hair loss) ([1]; of 26 patients enrolled): Three | patients who responded to the treatment (regression of drusen deposits) ([1]; patients who completed the pilot study): Ten of 23 | average time to response ([1]; responders): 11.7 months | letters gained on average ([1]; responders): 3 letters | time to response, range ([1]; responders): 3-22 months | visual acuity improved by ([2]; person with AMD, six months after 80 mg atorvastatin daily): 12 letters | atrophy of the RPE (SD-OCT) [2, 5]: without accompanying atrophy of the RPE | drusen (fundus examination and SD-OCT) [2, 5]: complete disappearance of the drusen | visual acuity ([2]; six months after 80 mg atorvastatin daily, 20/30 before treatment): 20/20 | levels of IL-6 compared to control (IL-6; 0.1 μM atorvastatin pretreatment, cholesterol crystals (3.2-fold alone)): 1.7 fold | levels of IL-6 compared to control (IL-6; 0.1 μM atorvastatin pretreatment, ox-LDL (2.6-fold alone)): 1.9 fold | levels of IL-6 compared to control (IL-6; 0.5 μM atorvastatin pretreatment, ox-LDL (2.6-fold alone)): 1.3 fold | levels of IL-6 compared to control (IL-6; 1 μM atorvastatin pretreatment, cholesterol crystals (3.2-fold alone)): 0.8 fold | levels of IL-6 compared to control (IL-6; 1 μM atorvastatin pretreatment, ox-LDL (2.6-fold alone)): 1.4 fold | levels of IL-8 compared to control (IL-8; 0.1 μM atorvastatin pretreatment, cholesterol crystals (2.5-fold alone), western blot): 1.8 fold | levels of IL-8 compared to control (IL-8; 0.1 μM atorvastatin pretreatment, ox-LDL (1.3-fold alone), ELISA): 1.2 fold | levels of IL-8 compared to control (IL-8; 0.5 μM atorvastatin pretreatment, cholesterol crystals (2.5-fold alone), western blot): 1.6 fold | levels of IL-8 compared to control (IL-8; 0.5 μM atorvastatin pretreatment, ox-LDL (1.3-fold alone), ELISA): 1.02 fold | levels of IL-8 compared to control (IL-8; 1 μM atorvastatin pretreatment, cholesterol crystals (2.5-fold alone), western blot): 1.1 fold | levels of IL-8 compared to control (IL-8; 1 μM atorvastatin pretreatment, ox-LDL (1.3-fold alone), ELISA): 0.99 fold

CCC(C)(C)C(=O)O[C@H]1C[C@@H](C)C=C2C=C[C@H](C)[C@H](CC[C@@H]3C[C@@H](O)CC(=O)O3)[C@H]21 [simvastatin]
percentage of ARPE-19 phagocytic cells (ARPE-19 cells): 56% | mean fluorescence intensity (phagocytic index) (ARPE-19 cells): 513

CC[C@H](C)C(=O)O[C@H]1C[C@@H](C)C=C2C=C[C@H](C)[C@H](CC[C@@H]3C[C@@H](O)CC(=O)O3)[C@H]21 [lovastatin]
percentage of ARPE-19 phagocytic cells (ARPE-19 cells): 53% | mean fluorescence intensity (phagocytic index) (ARPE-19 cells): 502
